Consider 4 molecules from publication PMC11887370, “The universal accumulation of p-aminophenol during the microbial degradation of analgesic and antipyretic acetaminophen in WWTPs: a novel metagenomic perspective” (Microbiome, 2025).

What all share (experiment): UV-vis spectrophotometric hydrolysis assay, Michaelis-Menten fit
One data set has as its system T1, ApaA.
T1 construct: His6-tagged, plasmid pTIP-apaA (pTIPQC1), expressed in Rhodococcus erythropolis L88, Ni-NTA purified
It counts as biochemical, Rhodococcus sp. NyZ502. The settings on record: 100 mM phosphate buffer pH 7.4; 30 °C.

Substrate in data set [1]: CC(=O)Nc1ccc(O)cc1
The class given is biochemical, bacterium CSBL00001. The following applies: 100 mM phosphate buffer pH 7.4, 30 °C.

Substrate in data set [2]: CC(=O)Nc1ccc([N+](=O)[O-])cc1
The class given is biochemical, bacterium CSBL00001. The settings on record: 100 mM phosphate buffer pH 7.4, 30 °C.

On to `CC(=O)Nc1ccc([N+](=O)[O-])cc1` [4-nitroacetanilide], for which the Km (usually the concentration of substrate that gives half-maximal velocity) in the data set on ApaA was 26.6 ± 4.21 µM.

For the molecule `CC(=O)Nc1ccc(O)cc1` [Acetaminophen], the Km with ApaA stood at 8.96 µM.

With `CC(=O)Nc1ccccc1` [acetanilide], the Km in the data set with ApaA was 30.2 ± 3.86 µM.

B1: AAA (bacterium CSBL00001) (protein)
chain: MGKSHSPVHWKSAAEIVELVKSKQISPREVVESTIDLIEQRDPGLNAVVYKAYDEAREKAAALERRIMQGEPVGMLAGVPTLMKDLFAAKPGWPSTLGGIRALKDARGAAGVWSTYPLKMSGEDSLLLGQTNSPVYGFRGTTDNTFFGPTRNPFNLDFNAGGSSGGAAALVADGIVPVAGGTDGGGSIRIPAAWTNTYGFQPSIGRVPFKSRPNAFHPGPYLYEGPITRTVRDAALAMNVLHGFDRRDPASLRVKLDFTSALAQGVRGKKIGLTLNYGVFPVQQEIQDLIGKAARVFTELGAHVEFVDLGIPYSQKQMSDAWCRMIAIPTVASMQALRKEGIDLYGEHRADIPDALMKWIDAVADISVQQISADQLLRTTVFDCMNGVFDRFDLLLAPTLACMPVRNATDGCTEGPSQINGEEIDPLIGWCMTYLTNFSGHPSASVPAGLIDGLPAGMLIIGDRQADLDVIAASAAFERASPWSQYYDIPAGRPL
notes: His6-tagged, plasmid pET-aaa (pET-28a(+)), expressed in E. coli BL21(DE3), Ni-NTA purified
B1: the Km in data set [1] worked out at 22.13 µM. For the same molecule, in data set [2], the Km turned out to be 16.82 ± 5.55 µM; the kcat (in general, the number of substrate molecules converted per active site and unit of time at saturation) was 5.65 ± 0.54 s⁻¹.
